Source: patent US6410527B1, “Method of treating obsessive compulsive disorders, somatoform disorders, dissociative disorders, eating disorders, impulse control disorders, and autism” (Schering Corporation, priority 1998, dated 2002)
Counter-ions that a name gives are not always drawn.

How the values were obtained:
[1] = test system: patient diagnosed as having autism; assay: Administration of SCH 39166 capsules to a patient with autism; type: in vivo, human; settings: capsules of Example 1 containing 25.0 mg SCH 39166, once a day, six months
[2] = test system: patient diagnosed with obsessive-compulsive disorder; assay: Administration of SCH 39166 capsules to a patient with obsessive-compulsive disorder; type: in vivo, human; settings: capsules of Example 1 containing 5.0 mg SCH 39166, once a day, six months

With `CN1CCc2cc(Cl)c(O)cc2[C@H]2c3ccccc3CC[C@@H]21` [SCH 39166, (−)-trans-6,7,7a, 8,9,13b-hexahydro-3-chloro-2-hydroxy-N-methyl-5-H-benzo[d]naphtho{2,1-b}azepine HCl] the “observable symptoms of the disorder” value [1] was “reducing or eliminating the observable symptoms of the disorder” and the “observable symptoms of the disorder” value [2] was “reducing or eliminating the observable symptoms of the disorder”.
